Assay results taken from patent US6011041A, “Use of anhydrovinblastine” (priority 1996, dated 2000).
Structures can show the parent of a compound that is named as a salt. Where two headings read alike, the source gives them in different places.

Tests used:
[1] = system: H460 human non-small cell lung carcinoma; experiment: MTT dose response cytotoxicity, H460 (Table 1); assay type: cell-based; conditions: read-out: DRUG IC50
Method: (§1) Cytotoxicity experiments on AHVB were performed as direct comparisons with vincristine and navelbine in order to assess its inherent antineoplastic profile against a variety of tumour cell types relative to other relevant vinca alkaloids. The cytotoxicity of AHVB was investigated in vitro against a panel of tumour cell lines of varying lineage in order to determine the specificity of its antitumour activity with respect to cell type. The tumour lines studied were P388 lymphocytic leukemia (a murine lymphocytic leukemia), Noble (Nb) rat U17 lymphoma, MCF7 human breast carcinoma, H460 human non-small cell lung carcinoma, K562 human erythrokeukemia and LS180 human colon carcinoma based on established NCI in vitro new anticancer drug cytotoxicity screening protocols.
(§2) Standard dose response cytotoxicity assays (R. Mosmass, J. Immunol. Meth., 65:55-64, 1983) were utilized to determine the IC50 (drug concentration required to induce 50% inhibition of tumour cell growth) for vincristine, navelbine and AHVB. The indicated cell lines were obtained from either the ATCC or NCI tumor repository and were cultured in tissue culture media by standard techniques well known to those skilled in the art, prior to dilution to a defined cell concentration required for the studies in 96 well plates.
(§3) A wide range of drug concentrations were exposed to tumour cells growing at log phase in 96-well microtitre plates. Cell concentrations depended on the cell line as well as the length of time to be cultured. Typically, P388 cells were plated at a concentration of 30,000, 2,000 and 750 cells per well for studies lasting 1, 3 and 7 days, respectively MCF7 cells were plated at a concentration of 7,000 and 1,500 cells per well for studies lasting 3 and 7 days, respectively. H460 cells were plated at a concentration of 2,500 and 1,000 cells per well for studies lasting 3 and 7 days, respectively. K562 cells were plated at a concentration of 1,500 and 10,000 cells per well for studies lasting 1 and 3 days, respectively. LS180 cells were plated at a concentration of 5,000 and […] cells per well for studies lasting 3 and 7 days, respectively. After plating all cell lines were incubated (CO2 incubator at 37° C., 5% CO2) for 24 hours prior to addition of the cytotoxic agent (See Table 1). Subsequently the plates were incubated for the indicated time period. At specified times, cells were washed and subsequently exposed to the dye inclusion marker MTT (3-(4,5-dimethylthiazol-2-yl)-2,5diphenyl tetrazolium), which accumulated into viable cells. MTT was added to the cells at a final concentration of 50 μg per well. After a 4 hour incubation, the cells were washed free of media and unreacted MTT, prior to addition of DMSO which was required to solubilize the insoluble formazan precipitate that formed in viable cells. After the sample was mixed through repeated pipetting, the colored product was measured using a plate reader operating at 570 nm. The absorbance values obtained for cells cultured in the absence of drug was assumed to represent 100% viability. Experiments were repeated to substantiate any differences noted between […] and other vinca alkaloids.

[2] = system: LS180 human colon carcinoma; experiment: MTT dose response cytotoxicity, LS180 (Table 1); assay type: cell-based; conditions: read-out: DRUG IC50
Method: as §1, §2, §3

[3] = system: MCF7 human breast carcinoma; experiment: MTT dose response cytotoxicity, MCF7 (Table 1); assay type: cell-based; conditions: read-out: DRUG IC50
Method: as §1, §2, §3

healthy male Nb rats = experiment: acute (14 day) single dose toxicity in healthy male Nb rats (Table 2); assay type: in vivo, rat; conditions: single i.p. injection
Method: (§4) Range-finding acute (14 day), single dose toxicity studies were performed in healthy male Nb rats in order to determine the maximum tolerated dose of vincristine sulfate, navelbine and AHVB when administered as a single, intraperitoneal injection in these rodents (see Table 2). To this end, healthy non-tumor bearing male Nb rats (weight range 333-399 grams) were divided in groups of 3 animals. Each group was used to test one drug at one dosage. The volumes within which the drugs were administered depended on the concentration of the drug solution (in saline) and the weight of the animals, and ranged from 0.1-1.0 ml. Saline was used as a control. The highest dose of each drug which allowed survival of all animals in a group (3 out of 3) was taken as the subacutely toxic dosage for the drug, i.e. 0.7 mg/kg for vincristine, 2.0 mg/kg for navelbine and 3.0 mg/kg for AHVB.
(§5) The health of the animals was assessed by daily weight measurements in addition to behavioral indications of stress. Animals continued to be monitored throughout the complete 14 day study period. Animals were euthanized in the event of signs of severe stress or weight loss in excess of 20%. All animals were necropsied at the end of the study period or at the time of premature euthanasia.

[4] = as above; assay type: in vivo, rat; conditions: rat, in vivo, ip; male Nb rats, single i.p. injection; read-out: subacutely toxic dosage (highest dose which allowed survival of all animals in a group, 3 out of 3)
Method: as §4, §5

[5] = NCI-H460, 72 h, H460, exposure time 3 days
[6] = NCI-H460, 168 h, H460, exposure time 7 days
[7] = 72 h, LS180, exposure time 3 days
[8] = 168 h, LS180, exposure time 7 days
[9] = 72 h, MCF7, exposure time 3 days
[10] = 168 h, MCF7, exposure time 7 days

Compound | IC50 ([1]; NCI-H460, 72 h) [nM] | IC50 ([1]; NCI-H460, 168 h) [nM] | IC50 ([2]; LS180, 72 h) [nM] | IC50 ([2]; LS180, 168 h) [nM] | IC50 ([3]; MCF7, 72 h) [nM] | IC50 ([3]; MCF7, 168 h) [nM] | Mortality (surviving rats/injected rats) (healthy male Nb rats; 3.0 mg/kg) | Mortality (surviving rats/injected rats) (healthy male Nb rats; 4.4 mg/kg) | Mortality (surviving rats/injected rats) (healthy male Nb rats; 10.0 mg/kg) | MTD at 336 h [4] [mg/kg] | IC50 [1, 5] [nM] | IC50 [1, 6] [nM] | IC50 [2, 7] [nM] | IC50 [2, 8] [nM] | IC50 [3, 9] [nM] | IC50 [3, 10] [nM] | Mortality (surviving rats/injected rats) (healthy male Nb rats; 2.0 mg/kg) | Mortality (surviving rats/injected rats) (healthy male Nb rats; 5.0 mg/kg) | Mortality (surviving rats/injected rats) (healthy male Nb rats; 0.5 mg/kg) | Mortality (surviving rats/injected rats) (healthy male Nb rats; 0.7 mg/kg)
CCC1=CC2CN(CCc3c([nH]c4ccccc34)C(C(=O)OC)(c3cc4c(cc3OC)N(C)C3C(O)(C(=O)OC)C(OC(C)=O)C5(CC)C=CCN6CCC43C65)C2)C1 (stereo not shown) [AHVB, 3',4'-anhydrovinblastine] | 10 | 5 | > 50 | 17.5 | > 2500 | 31.3 ± 12.4 | 3/3 | 0/1 | 0/3 | 3 |  |  |  |  |  |  |  |  |  | 
CCC1=C[C@@H]2CN(C1)Cc1c([nH]c3ccccc13)[C@@](C(=O)OC)(c1cc3c(cc1OC)N(C)[C@H]1[C@@](O)(C(=O)OC)[C@H](OC(C)=O)[C@]4(CC)C=CCN5CC[C@]31[C@@H]54)C2 [navelbine, 3',4'-didehydro-4'-deoxy-C'-norvincaleukoblastine-di-L-tartrate] |  |  |  |  |  |  |  |  |  | 2 | 0.3 | > 0.5 | > 50 | 0.5 | > 2500 | 2.6 ± 1.6 | 3/3 | 0/3 |  | 
CC[C@]1(O)C[C@H]2CN(CCc3c([nH]c4ccccc34)[C@@](C(=O)OC)(c3cc4c(cc3OC)N(C=O)[C@H]3[C@@](O)(C(=O)OC)[C@H](OC(C)=O)[C@]5(CC)C=CCN6CC[C@]43[C@@H]65)C2)C1 [vincristine, Sulfate of 22-oxovincaleukoblastine] |  |  |  |  |  |  |  |  |  | 0.7 | 3.5 | 2.5 | > 50 | 1.5 | > 2500 | 2.6 ± 1.6 |  |  | 3/3 | 3/3
